# Assay results from PMC12090182, “Repurposing of the RIPK1-Selective Benzo[1,4]oxazepin-4-one Scaffold for the Development of a Type III LIMK1/2 Inhibitor” (ACS Chemical Biology, 2025).
# Like-named read-outs stand apart in the source and are kept apart here.
# Assays:
# Test in all cases: biochemical
# Assay type in all cases: binding
# [1] = target: 468 kinases including some pathogenic mutants (Homo sapiens, UniProt Q13131); settings: AMPK-alpha1 (Entrez PRKAA1), 100 nM; read-out: Percent Control
# [2] = target: 468 kinases including some pathogenic mutants (Homo sapiens, UniProt Q9H4A3); settings: WNK1 (Entrez WNK1), 1000 nM; read-out: Percent Control
# [3] = target: 468 kinases including some pathogenic mutants (Homo sapiens, UniProt Q9UM73, C1156Y); settings: read-out: Percent Control
# [4] = target: 468 kinases including some pathogenic mutants (Homo sapiens, UniProt P42336); settings: PIK3CA (Entrez PIK3CA), 100 nM; read-out: Percent Control
# [5] = target: 468 kinases including some pathogenic mutants (Homo sapiens, UniProt P07947); settings: YES (Entrez YES1), 100 nM; read-out: Percent Control
# [6] = target: 468 kinases including some pathogenic mutants (Homo sapiens, UniProt P53350); settings: PLK1 (Entrez PLK1), 100 nM; read-out: Percent Control
# [7] = target: 468 kinases including some pathogenic mutants (Homo sapiens, UniProt P16591); settings: FER (Entrez FER), 100 nM; read-out: Percent Control
# [8] = target: 468 kinases including some pathogenic mutants (Homo sapiens, UniProt P30291); settings: WEE1 (Entrez WEE1), 100 nM; read-out: Percent Control
# [9] = target: 468 kinases including some pathogenic mutants (Homo sapiens, UniProt Q8N4C8); settings: MINK (Entrez MINK1), 100 nM; read-out: Percent Control
# [10] = target: 468 kinases including some pathogenic mutants (Homo sapiens, UniProt Q15831); settings: LKB1 (Entrez STK11), 100 nM; read-out: Percent Control
# [11] = target: 468 kinases including some pathogenic mutants (Homo sapiens, UniProt Q16816); settings: PHKG1 (Entrez PHKG1), 100 nM; read-out: Percent Control
# [12] = target: 468 kinases including some pathogenic mutants (Homo sapiens, UniProt P54760); settings: EPHB4 (Entrez EPHB4), 100 nM; read-out: Percent Control
# [13] = target: 468 kinases including some pathogenic mutants (Homo sapiens, UniProt Q9UL54); settings: TAOK2 (Entrez TAOK2), 100 nM; read-out: Percent Control
# [14] = target: 468 kinases including some pathogenic mutants (Homo sapiens, UniProt P14616); settings: INSRR (Entrez INSRR), 100 nM; read-out: Percent Control
# [15] = target: 468 kinases including some pathogenic mutants (Homo sapiens, UniProt Q13464); settings: ROCK1 (Entrez ROCK1), 100 nM; read-out: Percent Control
# [16] = target: 468 kinases including some pathogenic mutants (Homo sapiens, UniProt P00533, G719S); settings: read-out: Percent Control
# [17] = target: 468 kinases including some pathogenic mutants (Homo sapiens, UniProt Q6ZWH5); settings: NEK10 (Entrez NEK10), 100 nM; read-out: Percent Control
# [18] = target: 468 kinases including some pathogenic mutants (Homo sapiens, UniProt P51817); settings: PRKX (Entrez PRKX), 100 nM; read-out: Percent Control
# [19] = target: 468 kinases including some pathogenic mutants (Homo sapiens, UniProt P42679); settings: CTK (Entrez MATK), 100 nM; read-out: Percent Control
# [20] = target: 468 kinases including some pathogenic mutants (Homo sapiens, UniProt Q13237); settings: PRKG2 (Entrez PRKG2), 100 nM; read-out: Percent Control
# [21] = target: 468 kinases including some pathogenic mutants (Homo sapiens, UniProt Q99640); settings: PKMYT1 (Entrez PKMYT1), 100 nM; read-out: Percent Control
# [22] = target: 468 kinases including some pathogenic mutants (Homo sapiens, UniProt P36888, R834Q); settings: read-out: Percent Control
# [23] = target: 468 kinases including some pathogenic mutants (Homo sapiens, UniProt P36894); settings: BMPR1A (Entrez BMPR1A), 100 nM; read-out: Percent Control
# [24] = target: 468 kinases including some pathogenic mutants (Homo sapiens, UniProt O43353); settings: RIPK2 (Entrez RIPK2), 100 nM; read-out: Percent Control
# [25] = target: 468 kinases including some pathogenic mutants (Homo sapiens, UniProt P10721); settings: 100 nM, read-out: Percent Control
# [26] = target: 468 kinases including some pathogenic mutants (Homo sapiens, UniProt Q96J92); settings: WNK4 (Entrez WNK4), 1000 nM; read-out: Percent Control
# [27] = target: 468 kinases including some pathogenic mutants (Homo sapiens, UniProt O43318); settings: TAK1 (Entrez MAP3K7), 100 nM; read-out: Percent Control
# [28] = target: 468 kinases including some pathogenic mutants (Homo sapiens, UniProt Q52WX2); settings: SBK1 (Entrez SBK1), 1000 nM; read-out: Percent Control
# [29] = target: 468 kinases including some pathogenic mutants (Homo sapiens, UniProt Q9Y2I7); settings: PIKFYVE (Entrez PIKFYVE), 1000 nM; read-out: Percent Control
# Sequence of 468 kinases including some pathogenic mutants (Homo sapiens, UniProt P10721) (P10721 26-976, change not shown): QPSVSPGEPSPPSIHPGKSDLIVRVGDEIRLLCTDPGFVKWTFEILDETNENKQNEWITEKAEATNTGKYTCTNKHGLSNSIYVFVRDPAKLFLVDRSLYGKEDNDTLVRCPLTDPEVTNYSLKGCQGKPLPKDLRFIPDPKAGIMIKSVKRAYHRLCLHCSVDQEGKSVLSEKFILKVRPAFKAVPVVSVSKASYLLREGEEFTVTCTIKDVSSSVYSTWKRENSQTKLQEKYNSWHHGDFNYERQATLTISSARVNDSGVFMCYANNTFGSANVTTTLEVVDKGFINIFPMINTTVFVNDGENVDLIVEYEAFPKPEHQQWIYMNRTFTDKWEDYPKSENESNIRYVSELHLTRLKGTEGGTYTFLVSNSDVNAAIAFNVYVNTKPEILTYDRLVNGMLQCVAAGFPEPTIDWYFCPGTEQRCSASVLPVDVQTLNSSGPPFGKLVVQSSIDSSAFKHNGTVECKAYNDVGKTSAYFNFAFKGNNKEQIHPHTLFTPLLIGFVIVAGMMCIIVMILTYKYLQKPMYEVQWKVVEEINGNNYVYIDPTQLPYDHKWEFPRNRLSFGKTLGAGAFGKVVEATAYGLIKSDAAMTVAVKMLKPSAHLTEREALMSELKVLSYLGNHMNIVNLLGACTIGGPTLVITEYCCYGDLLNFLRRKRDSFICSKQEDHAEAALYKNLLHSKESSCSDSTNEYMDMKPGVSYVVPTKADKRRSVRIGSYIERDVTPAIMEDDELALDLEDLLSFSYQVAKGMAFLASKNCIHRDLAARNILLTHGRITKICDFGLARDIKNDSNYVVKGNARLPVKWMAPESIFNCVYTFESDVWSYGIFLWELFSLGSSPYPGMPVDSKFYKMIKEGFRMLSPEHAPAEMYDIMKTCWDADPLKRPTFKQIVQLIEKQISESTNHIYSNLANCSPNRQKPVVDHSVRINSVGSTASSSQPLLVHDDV
# Sequence of 468 kinases including some pathogenic mutants (Homo sapiens, UniProt Q16816) (Q16816 whole entry, change not shown): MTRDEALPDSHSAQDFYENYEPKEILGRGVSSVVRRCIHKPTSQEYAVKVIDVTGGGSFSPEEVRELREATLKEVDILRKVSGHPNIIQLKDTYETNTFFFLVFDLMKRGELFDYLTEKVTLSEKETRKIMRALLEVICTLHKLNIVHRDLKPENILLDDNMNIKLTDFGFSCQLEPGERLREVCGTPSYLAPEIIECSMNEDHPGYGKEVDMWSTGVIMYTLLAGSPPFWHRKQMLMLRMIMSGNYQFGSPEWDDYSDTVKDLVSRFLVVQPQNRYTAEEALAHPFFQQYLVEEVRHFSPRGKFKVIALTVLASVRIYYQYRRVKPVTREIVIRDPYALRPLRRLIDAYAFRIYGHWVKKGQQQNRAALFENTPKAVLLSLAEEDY
# Sequence of 468 kinases including some pathogenic mutants (Homo sapiens, UniProt O43353) (O43353 whole entry, change not shown): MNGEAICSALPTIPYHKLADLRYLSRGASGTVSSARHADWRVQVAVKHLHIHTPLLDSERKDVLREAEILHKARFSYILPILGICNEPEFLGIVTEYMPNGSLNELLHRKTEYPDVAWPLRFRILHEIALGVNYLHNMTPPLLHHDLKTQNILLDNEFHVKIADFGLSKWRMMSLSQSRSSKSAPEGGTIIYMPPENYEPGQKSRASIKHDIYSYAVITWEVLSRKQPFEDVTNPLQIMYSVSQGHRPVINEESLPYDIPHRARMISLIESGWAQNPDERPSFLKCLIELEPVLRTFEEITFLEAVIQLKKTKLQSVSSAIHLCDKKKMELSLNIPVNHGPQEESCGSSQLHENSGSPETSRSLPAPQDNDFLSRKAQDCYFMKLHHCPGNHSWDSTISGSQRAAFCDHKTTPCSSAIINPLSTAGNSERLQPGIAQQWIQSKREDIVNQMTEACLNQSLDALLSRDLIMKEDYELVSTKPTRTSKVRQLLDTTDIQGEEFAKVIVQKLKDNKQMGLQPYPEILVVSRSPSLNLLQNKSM
# Sequence of 468 kinases including some pathogenic mutants (Homo sapiens, UniProt P54760) (P54760 16-987, change not shown): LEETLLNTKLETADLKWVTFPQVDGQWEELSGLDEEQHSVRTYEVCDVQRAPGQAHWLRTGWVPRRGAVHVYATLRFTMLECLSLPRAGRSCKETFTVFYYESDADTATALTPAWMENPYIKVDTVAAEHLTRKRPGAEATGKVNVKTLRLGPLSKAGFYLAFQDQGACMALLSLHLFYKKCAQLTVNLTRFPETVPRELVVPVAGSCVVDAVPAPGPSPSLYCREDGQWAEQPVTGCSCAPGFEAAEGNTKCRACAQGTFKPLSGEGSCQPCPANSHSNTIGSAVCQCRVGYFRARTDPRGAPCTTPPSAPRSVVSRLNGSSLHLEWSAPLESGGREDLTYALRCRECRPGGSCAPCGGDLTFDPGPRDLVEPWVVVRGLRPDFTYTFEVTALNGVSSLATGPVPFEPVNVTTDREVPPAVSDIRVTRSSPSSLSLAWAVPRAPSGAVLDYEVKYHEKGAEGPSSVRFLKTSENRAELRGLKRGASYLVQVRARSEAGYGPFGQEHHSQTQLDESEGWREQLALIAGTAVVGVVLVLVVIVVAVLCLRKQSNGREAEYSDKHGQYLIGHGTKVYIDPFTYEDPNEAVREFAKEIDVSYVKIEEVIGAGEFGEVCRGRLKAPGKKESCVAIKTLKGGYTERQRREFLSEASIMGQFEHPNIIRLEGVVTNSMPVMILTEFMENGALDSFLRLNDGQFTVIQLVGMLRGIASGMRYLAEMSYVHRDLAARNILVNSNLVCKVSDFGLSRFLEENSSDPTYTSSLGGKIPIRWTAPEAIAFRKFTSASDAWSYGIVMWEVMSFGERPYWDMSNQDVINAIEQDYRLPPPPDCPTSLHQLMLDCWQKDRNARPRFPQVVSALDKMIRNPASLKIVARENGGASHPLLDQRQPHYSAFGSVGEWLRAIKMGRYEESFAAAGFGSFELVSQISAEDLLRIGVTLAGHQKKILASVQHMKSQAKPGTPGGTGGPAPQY
# Sequence of 468 kinases including some pathogenic mutants (Homo sapiens, UniProt Q9UM73, C1156Y) (Q9UM73 19-1620 C1156Y): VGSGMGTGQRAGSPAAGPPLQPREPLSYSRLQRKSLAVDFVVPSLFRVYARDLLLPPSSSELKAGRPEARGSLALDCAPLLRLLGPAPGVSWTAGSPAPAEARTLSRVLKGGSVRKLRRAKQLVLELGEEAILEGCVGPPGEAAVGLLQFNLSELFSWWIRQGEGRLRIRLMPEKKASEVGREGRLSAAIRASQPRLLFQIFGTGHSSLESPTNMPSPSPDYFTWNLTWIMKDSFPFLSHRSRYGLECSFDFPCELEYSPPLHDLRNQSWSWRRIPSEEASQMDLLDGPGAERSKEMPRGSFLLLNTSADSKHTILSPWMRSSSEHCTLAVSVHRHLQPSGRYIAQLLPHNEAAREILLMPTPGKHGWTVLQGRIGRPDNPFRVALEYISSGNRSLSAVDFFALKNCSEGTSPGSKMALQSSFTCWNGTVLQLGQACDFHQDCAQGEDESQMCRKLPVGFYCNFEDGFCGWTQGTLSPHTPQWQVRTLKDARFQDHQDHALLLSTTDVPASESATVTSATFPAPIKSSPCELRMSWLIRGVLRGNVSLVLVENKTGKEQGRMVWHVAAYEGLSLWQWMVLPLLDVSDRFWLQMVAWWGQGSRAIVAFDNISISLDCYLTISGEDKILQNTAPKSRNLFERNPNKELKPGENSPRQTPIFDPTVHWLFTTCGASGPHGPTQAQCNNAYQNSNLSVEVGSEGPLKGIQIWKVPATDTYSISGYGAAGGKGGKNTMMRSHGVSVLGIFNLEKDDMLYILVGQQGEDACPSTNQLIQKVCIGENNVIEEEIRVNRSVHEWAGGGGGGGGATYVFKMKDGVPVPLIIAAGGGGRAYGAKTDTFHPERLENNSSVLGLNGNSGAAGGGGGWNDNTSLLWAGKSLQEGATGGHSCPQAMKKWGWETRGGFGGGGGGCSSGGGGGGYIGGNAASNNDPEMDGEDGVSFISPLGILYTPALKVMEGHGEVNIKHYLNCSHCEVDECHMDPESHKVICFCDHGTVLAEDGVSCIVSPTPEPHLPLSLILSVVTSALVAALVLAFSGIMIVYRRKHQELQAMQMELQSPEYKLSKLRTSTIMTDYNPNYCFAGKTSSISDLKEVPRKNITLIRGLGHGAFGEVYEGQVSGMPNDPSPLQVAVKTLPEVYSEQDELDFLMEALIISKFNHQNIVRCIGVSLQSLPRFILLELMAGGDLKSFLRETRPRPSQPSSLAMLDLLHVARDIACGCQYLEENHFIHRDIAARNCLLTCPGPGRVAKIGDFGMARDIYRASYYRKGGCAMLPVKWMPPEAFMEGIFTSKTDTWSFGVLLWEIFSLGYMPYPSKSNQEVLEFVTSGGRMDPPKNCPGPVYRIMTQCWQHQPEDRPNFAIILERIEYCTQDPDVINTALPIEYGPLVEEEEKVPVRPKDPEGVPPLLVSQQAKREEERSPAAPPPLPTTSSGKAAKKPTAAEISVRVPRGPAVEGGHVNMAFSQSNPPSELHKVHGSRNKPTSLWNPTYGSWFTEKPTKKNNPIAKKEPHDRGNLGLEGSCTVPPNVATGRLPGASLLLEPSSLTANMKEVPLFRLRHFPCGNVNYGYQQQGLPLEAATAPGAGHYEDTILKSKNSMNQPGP
# Sequence of 468 kinases including some pathogenic mutants (Homo sapiens, UniProt P51817) (P51817 whole entry, change not shown): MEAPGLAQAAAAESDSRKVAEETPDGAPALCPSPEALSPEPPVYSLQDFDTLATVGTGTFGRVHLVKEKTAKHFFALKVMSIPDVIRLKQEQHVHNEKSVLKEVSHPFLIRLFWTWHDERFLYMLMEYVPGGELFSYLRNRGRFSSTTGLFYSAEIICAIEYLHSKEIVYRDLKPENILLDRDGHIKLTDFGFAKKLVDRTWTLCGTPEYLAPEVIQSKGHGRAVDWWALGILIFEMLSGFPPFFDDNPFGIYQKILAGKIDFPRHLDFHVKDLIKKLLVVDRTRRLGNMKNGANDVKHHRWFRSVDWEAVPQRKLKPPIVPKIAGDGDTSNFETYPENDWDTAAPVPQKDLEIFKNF
structure (smiles),measurement,setting,value
"CN1C(=O)[C@@H](N2CCc3c(nn(Cc4ccccc4)c3C(N)=O)C2=O)COc2cc(Cl)ccc21 [Compound 10, (S)-2-benzyl-6-(8-chloro-5-methyl-4-oxo-2,3,4,5-tetrahydrobenzo[b][1,4]oxazepin-3-yl)-7-oxo-4,5,6,7-tetrahydro-2H-pyrazolo[3,4-c]pyridine-3-carboxamide]",remaining activity at 0.1 µM,[1],65%
same,remaining activity at 1 µM,[2],100%
same,remaining activity at 0.1 µM,[3],93%
same,remaining activity at 0.1 µM,[4],71%
same,remaining activity at 0.1 µM,[5],89%
same,remaining activity at 0.1 µM,[6],68%
same,remaining activity at 0.1 µM,[7],100%
same,remaining activity at 0.1 µM,[8],92%
same,remaining activity at 0.1 µM,[9],94%
same,remaining activity at 0.1 µM,[10],97%
same,remaining activity at 0.1 µM,[11],94%
same,remaining activity at 0.1 µM,[12],72%
same,remaining activity at 0.1 µM,[13],100%
same,remaining activity at 0.1 µM,[14],68%
same,remaining activity at 0.1 µM,[15],76%
same,remaining activity at 0.1 µM,[16],100%
same,remaining activity at 0.1 µM,[17],89%
same,remaining activity at 0.1 µM,[18],77%
same,remaining activity at 0.1 µM,[19],100%
same,remaining activity at 0.1 µM,[20],77%
same,remaining activity at 0.1 µM,[21],90%
same,remaining activity at 0.1 µM,[22],81%
same,remaining activity at 0.1 µM,[23],78%
same,remaining activity at 0.1 µM,[24],87%
same,remaining activity at 0.1 µM,[25]; KIT (Entrez KIT),69%
same,remaining activity at 0.1 µM,[25]; KIT-autoinhibited (Entrez KIT),100%
same,remaining activity at 1 µM,[26],100%
same,remaining activity at 0.1 µM,[27],100%
same,remaining activity at 1 µM,[28],100%
same,remaining activity at 1 µM,[29],100%
